Earlier results in patent publication US20090047245A1, “Prognostic chronic hepatitis C biomarkers” (priority 2007, published 2009).

System: HCV

NC(=O)c1ncn([C@@H]2O[C@H](CO)[C@@H](O)[C@H]2O)n1 [ribavirin]
increase of the sustained response rate (ribavirin added to interferon): two- to three-fold | effect on HCV (ribavirin by itself): little effect on HCV
